Here are results for two compounds from paper PMC5480290 (Journal of the American Chemical Society, 2016).

Assay [1] has as its target T1, LBT-PglBCl-Δ1-12 (Campylobacter lari, UniProt B9KDD4). The assay is classed as binding. To be noted: Tb^3+ relative to LBT-PglB.
The next assay addresses LBT-PglBCj-Δ1-11 (Campylobacter jejuni subsp. jejuni serotype O:2, UniProt Q0P9C8). The assay is classed as binding.
Assay [2] has as its target T1, LBT-PglBCl-Δ1-12. Format: binding. To be noted: read-out: KD (glycan substrate); LRET titration, UndPPT-Fl from 0.014 to 5 μM, luminescence at 544 nm.
Another assay deals with PglBCj. The assay is classed as biochemical, Campylobacter jejuni.

What is called Kd is the free concentration of one partner at which half of the binding sites on the other are occupied at equilibrium, for simple one-to-one binding. Take `[Tb+3]` [Tb^3+, terbium]: the “Tb^3+ saturation stoichiometry” value on LBT-PglBCl-Δ1-12 [1] and on LBT-PglBCj-Δ1-11 (Tb^3+ relative to LBT-PglB) was “saturated at one molar equivalent” in each case. The Kd at LBT-PglBCj-Δ1-11 (read-out: Tb^3+ KD, estimated, sensitized luminescence at 544 nm) is 2300 nM.
As for “Und-PP-diNAcBac-GalNAc-GalNAz conjugated to acetylene-545 fluorophore [UndPPT-Fl]”, the Kd at LBT-PglBCl-Δ1-12 [2] stood at 330 ± 70 nM. Also, in the assay on PglBCj, the “tolerated as glycosyl donor substrate” value is recorded as “tolerates”.
